Results taken from US7098199B2 (Sterix Limited, priority 1991, dated 2006).
Where two headings read alike, the source gives them in different places.

Key:
oestrone sulphatase [1] = target: T1, oestrone sulphatase (Homo sapiens, UniProt P08842)
T1 sequence (P08842 22-583): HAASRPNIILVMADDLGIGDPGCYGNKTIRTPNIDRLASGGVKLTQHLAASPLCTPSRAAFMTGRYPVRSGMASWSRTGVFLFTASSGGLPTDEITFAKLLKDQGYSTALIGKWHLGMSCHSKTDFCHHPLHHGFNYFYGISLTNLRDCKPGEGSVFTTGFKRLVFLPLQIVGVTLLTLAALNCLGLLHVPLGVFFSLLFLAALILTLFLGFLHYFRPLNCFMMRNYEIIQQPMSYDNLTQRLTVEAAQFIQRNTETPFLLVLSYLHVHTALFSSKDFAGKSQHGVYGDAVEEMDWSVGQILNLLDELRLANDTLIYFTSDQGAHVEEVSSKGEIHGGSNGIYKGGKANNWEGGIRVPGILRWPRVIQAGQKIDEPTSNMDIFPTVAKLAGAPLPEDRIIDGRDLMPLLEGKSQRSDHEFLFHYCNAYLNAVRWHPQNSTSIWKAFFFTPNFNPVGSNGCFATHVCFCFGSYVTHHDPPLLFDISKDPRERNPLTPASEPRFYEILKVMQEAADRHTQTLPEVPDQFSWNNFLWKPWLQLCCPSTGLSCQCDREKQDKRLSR

[2] = target: T2, Steroid sulphatase (Steryl Sulphatase EC3.1.6.2) (Homo sapiens, UniProt P08842); experiment: Steroid sulphatase activity in intact MCF-7 cells; type: cell-based; settings: for inhibition at 10 µM: MCF7; for Steroid Sulphatase Activity: mean ± 1 S.D.
T2 construct: endogenous in cells; host or cells: MCF-7 human breast cancer cells
T2 sequence (P08842 22-583): T1 sequence (P08842 22-583)
Method: Steroid sulphatase is defined as: Steryl Sulphatase EC3.1.6.2.
Steroid sulphatase activity was measured in vitro using intact MCF-7 human breast cancer cells. This hormone dependent cell line is widely used to study the control of human breast cancer cell growth. […] Cells were maintained in Minimal Essential Medium (MEM) (Flow Laboratories, Irvine, Scotland) containing 20 mM HEPES, 5% foetal bovine serum, 2 mM glutamine, nonessential amino acids and 0.075% sodium bicarbonate. Up to 30 replicate 25 cm^2 tissue culture flasks were seeded with approximately 1×10^5 cells/flask using the above medium. Cells were grown to 80% confluency and medium was changed every third day.
Each batch of experiments included incubations of microsomes prepared from a sulphatase-positive human placenta (positive control) and flasks without cells (to assess apparent non-enzymatic hydrolysis of the substrate). The number of cell nuclei per flask was determined using a Coulter Counter after treating the cell monolayers with Zaponin. One flask in each batch was used to assess cell membrane status and viability using the Trypan Blue exclusion method (Phillips, H. J. (1973) In: Tissue culture and applications,[eds: Kruse, D. F. & Patterson, M. K.]; pp. 406–408; Academic Press, New York).
Unpaired Student's t-test was used to test the statistical significance of results.
An identical experimental protocol to that described in Example 4 was used to generate results for oestrone-3-N,N-diimethylsulphamate except that incubations contained oestrone-3-N,N-dimethylsulphaiate (5 concentrations: 0; 0.001 μM; 0.01 μM; 0.1 μM; 1 μM) in place of oestrone-3-sulphamate.

Steroid sulphatase [3] = target: T3, Steroid sulphatase (Homo sapiens, UniProt P08842); experiment: Steroid sulphatase activity in placental microsomes; settings: 10 μM
T3 sequence (P08842 22-583): T1 sequence (P08842 22-583)

Steroid sulphatase [4] = target: T4, Steroid sulphatase (Rattus norvegicus, UniProt P15589); experiment: % inhibition in vivo from a single dose (Example 9); set-up: from tissue; host or cells: tissue of treated animals; tissue not given; settings: single dose of 10 mg/kg
T4 sequence (P15589 20-577): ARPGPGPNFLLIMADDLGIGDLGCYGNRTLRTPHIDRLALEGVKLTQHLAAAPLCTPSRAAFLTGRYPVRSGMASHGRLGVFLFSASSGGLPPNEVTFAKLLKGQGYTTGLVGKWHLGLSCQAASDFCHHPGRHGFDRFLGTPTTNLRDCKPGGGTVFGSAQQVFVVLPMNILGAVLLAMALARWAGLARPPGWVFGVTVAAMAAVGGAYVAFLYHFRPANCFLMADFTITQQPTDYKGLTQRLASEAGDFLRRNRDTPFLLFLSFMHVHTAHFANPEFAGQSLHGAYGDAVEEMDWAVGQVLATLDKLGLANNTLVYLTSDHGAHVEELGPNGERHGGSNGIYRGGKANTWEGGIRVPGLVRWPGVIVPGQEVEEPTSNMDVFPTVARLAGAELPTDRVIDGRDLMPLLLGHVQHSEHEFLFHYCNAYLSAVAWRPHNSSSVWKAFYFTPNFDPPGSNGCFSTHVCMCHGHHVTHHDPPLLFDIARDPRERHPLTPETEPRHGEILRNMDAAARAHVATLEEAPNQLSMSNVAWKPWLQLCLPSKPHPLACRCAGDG

oestrone sulphatase [5] = target: T1, oestrone sulphatase; experiment: Oestrone sulphatase inhibition in placental microsomes by flavanoid sulphamates; type: biochemical
[6] = target: T2, Steroid sulphatase (Steryl Sulphatase EC3.1.6.2); experiment: Steroid sulphatase activity in MCF-7 cells pre-incubated with inhibitor and washed; type: cell-based; settings: pre-treatment 2 hours with 0.1 μM, cells washed 3 times
oestrone sulphatase [7] = target: T1, oestrone sulphatase; type: cell-based
Steroid sulphatase [8] = target: T4, Steroid sulphatase; experiment: Steroid sulphatase activity in liver microsome preparations from rats treated subcutaneously; type: in vivo; set-up: except that the tissue source was rat liver; from tissue; host or cells: liver of female Wistar rats; settings: 10 mg/kg/day s.c. for 7 days, rat liver microsomes, mean ± 1 S.D., n = 3
[9] = concentration tested 50 mM (so in the source)
[10] = concentration tested 1 mM (so in the source)
[11] = concentration tested 10 mM (so in the source)
[12] = concentration tested 25 mM (so in the source)
[13] = concentration tested 100 mM (so in the source)

C[C@]12CC[C@@H]3c4cc([N+](=O)[O-])c(OS(N)(=O)=O)cc4CC[C@H]3[C@@H]1CCC2=O [2-nitro EMATE]
% Inhibition (Mean) Placental Microsomes (oestrone sulphatase [1]; concentration tested 0.05 mM (so in the source)): 44.5% | % Inhibition (Mean) Placental Microsomes (oestrone sulphatase [1]; concentration tested 0.5 mM (so in the source)): 93.9% | % Inhibition (Mean) Placental Microsomes (oestrone sulphatase [1]; concentration tested 5 mM (so in the source)): 99.0% | % Inhibition (Mean) Placental Microsomes (oestrone sulphatase [1]; [9]): 99.4%

C=CCc1cc2c(cc1OS(N)(=O)=O)CC[C@@H]1[C@@H]2CC[C@]2(C)C(=O)CC[C@@H]12 [2-allyl EMATE]
% Inhibition (Mean) Placental Microsomes (oestrone sulphatase [1]; [10]): 45.6% | % Inhibition (Mean) Placental Microsomes (oestrone sulphatase [1]; [11]): 65.4% | % Inhibition (Mean) Placental Microsomes (oestrone sulphatase [1]; [12]): 75.3% | % Inhibition (Mean) Placental Microsomes (oestrone sulphatase [1]; [9]): 86.6% | % Inhibition (Mean) Placental Microsomes (oestrone sulphatase [1]; [13]): 89.6%

C=CCc1c(OS(N)(=O)=O)ccc2c1CC[C@@H]1[C@@H]2CC[C@]2(C)C(=O)CC[C@@H]12 [4-allyl EMATE]
% Inhibition (Mean) Placental Microsomes (oestrone sulphatase [1]; [10]): 29.1% | % Inhibition (Mean) Placental Microsomes (oestrone sulphatase [1]; [11]): 54.2% | % Inhibition (Mean) Placental Microsomes (oestrone sulphatase [1]; [12]): 59.0% | % Inhibition (Mean) Placental Microsomes (oestrone sulphatase [1]; [9]): 65.1% | % Inhibition (Mean) Placental Microsomes (oestrone sulphatase [1]; [13]): 71.9%

CCCCCCCOc1ccc(OS(N)(=O)=O)cc1 [9a]
inhibition at 10 µM [2]: 99 ± 2% | melting point: > 42 °C (dec.) | % Inhibition in Placental Microsomes at 10 μM (Steroid sulphatase [3]): 40±2% | % Inhibition in vivo from a single dose of 10 mg/kg (Steroid sulphatase [4]): 22±3%

CCCc1cc2c(cc1OS(N)(=O)=O)CC[C@@H]1[C@@H]2CC[C@]2(C)C(=O)CC[C@@H]12 [2-n-propyl EMATE]
% Inhibition (Mean) Placental Microsomes (oestrone sulphatase [1]; [10]): 21.9% | % Inhibition (Mean) Placental Microsomes (oestrone sulphatase [1]; [11]): 43.2% | % Inhibition (Mean) Placental Microsomes (oestrone sulphatase [1]; [12]): 47.5% | % Inhibition (Mean) Placental Microsomes (oestrone sulphatase [1]; [9]): 61.1% | % Inhibition (Mean) Placental Microsomes (oestrone sulphatase [1]; [13]): 69.2%

COc1cc(CNC(=O)CCCC/C=C/C(C)C)ccc1OS(N)(=O)=O [9b, (E) Methyl-γ-methyl-6-nonenamide-N-(3-methboxyphenyl4-O-sulphanate)]
inhibition at 10 µM [2]: 99 ± 2% | % Inhibition in Placental Microsomes at 10 μM (Steroid sulphatase [3]): 40±2% | % Inhibition in vivo from a single dose of 10 mg/kg (Steroid sulphatase [4]): 22±3%

COc1ccc(-c2coc3cc(OS(N)(=O)=O)cc(O)c3c2=O)cc1 [5-Hydroxy-4′-methoxyisoflavone 7-O-sulphamate]
% INHIBITION Sulphatase (oestrone sulphatase [5]; 1 μM): 1% | % INHIBITION Sulphatase (oestrone sulphatase [5]; 10 μM): 50.6%

COc1cc2c(cc1OS(N)(=O)=O)CC[C@@H]1[C@@H]2CC[C@]2(C)C(=O)CC[C@@H]12 [2-methoxy EMATE]
% Inhibition (Mean) Placental Microsomes (oestrone sulphatase [1]; [11]): 99.0% | % Inhibition (Mean) Placental Microsomes (oestrone sulphatase [1]; [9]): 99.7% | % Inhibition (Mean) Placental Microsomes (oestrone sulphatase [1]; [13]): 99.7%

CN(C)S(=O)(=O)Oc1ccc2c(c1)CC[C@@H]1[C@@H]2CC[C@]2(C)C(=O)CC[C@@H]12 [Oestrone-3-N,N-dimethylsulphamate, oestrone-3-N.N-dimethylsulphamate]
% reduction over control (% inhibition) ([2]; inhibitor 0.001 μM): 17.3% | Steroid Sulphatase Activity ([2]; inhibitor 0.001 μM): 68.33 ± 3.2 fmol/20 hr/10^6 cells | % reduction over control (% inhibition) ([2]; inhibitor 0.01 μM): 44.3% | Steroid Sulphatase Activity ([2]; inhibitor 0.01 μM, n = 3): 46.0 ± 4.9 fmol/20 hr/10^6 cells | % reduction over control (% inhibition) ([2]; inhibitor 0.1 μM): 78.9% | Steroid Sulphatase Activity ([2]; inhibitor 0.1 μM, n = 3): 17.43 ± 4.3 fmol/20 hr/10^6 cells | % reduction over control (% inhibition) ([2]; inhibitor 1 μM): 85.6% | Steroid Sulphatase Activity ([2]; inhibitor 1 μM, n = 3): 11.89 ± 3.7 fmol/20 hr/10^6 cells | % reduction over control (% inhibition) [6]: 18.8% | Steroid Sulphatase Activity ([6]; mean ± 1 S.D., n = 3): 53.1 ± 3.4 fmol/20 hr/10^6 cells

NS(=O)(=O)Oc1ccccc1[N+](=O)[O-] [9c, 2-Nitrophenol-O-sulfamate]
inhibition at 10 µM [2]: 99 ± 2% | % Inhibition in Placental Microsomes at 10 μM (Steroid sulphatase [3]): 40±2% | % Inhibition in vivo from a single dose of 10 mg/kg (Steroid sulphatase [4]): 22±3%

NS(=O)(=O)Oc1ccc(C2CC(=O)c3c(O)cc(O)cc3O2)cc1 (centres unmarked) [5,7-dihydroxy flavanone 4′-sulphamate, 5.7-Dihydroxyflavanone 4′-O-sulphamate]
% INHIBITION Sulphatase (oestrone sulphatase [5]; 0.1 μM): 30.4% | % INHIBITION Sulphatase (oestrone sulphatase [5]; 1 μM): 79.1% | % INHIBITION Sulphatase (oestrone sulphatase [5]; 10 μM): 98.1% | % INHIBITION Sulphatase (oestrone sulphatase [5]; 10 μM, listed as 5,7-dihydroxy flavanone-4′-sulphamate): 98%

flavone-7-sulphamate
% INHIBITION Sulphatase (oestrone sulphatase [5]; 50 μM): 56.3% | % INHIBITION Sulphatase (oestrone sulphatase [5]; 100 μM): 75.3%

NS(=O)(=O)Oc1ccc(-c2coc3cc(O)cc(O)c3c2=O)cc1 [Isoflavone 5.7-dihydroxy-4′-sulphamate, 5,7-Dihydroxy Isoflavone-4′-O-Sulphamate]
% Inhibition MCF-7 Cells (oestrone sulphatase [7]; 0.1 μM): 23% | % Inhibition MCF-7 Cells (oestrone sulphatase [7]; 1.0 μM): 83% | % Inhibition MCF-7 Cells (oestrone sulphatase [7]; 10.0 μM): 99%

CCCc1c(OS(N)(=O)=O)ccc2c1CC[C@@H]1[C@@H]2CC[C@]2(C)C(=O)CC[C@@H]12 [4-n-propyl EMATE]
% Inhibition (Mean) Placental Microsomes (oestrone sulphatase [1]; [10]): 13.7% | % Inhibition (Mean) Placental Microsomes (oestrone sulphatase [1]; [11]): 10.2% | % Inhibition (Mean) Placental Microsomes (oestrone sulphatase [1]; [12]): 15.7% | % Inhibition (Mean) Placental Microsomes (oestrone sulphatase [1]; [9]): 16.3% | % Inhibition (Mean) Placental Microsomes (oestrone sulphatase [1]; [13]): 23.7%

NS(=O)(=O)Oc1ccc(-c2coc3cc(OS(N)(=O)=O)cc(O)c3c2=O)cc1 [Isoflavone 5-hydroxy-4′,7-bissulphamate, 5-Hydroxy Isoflavone4′-O,O-Disulphamate]
% Inhibition MCF-7 Cells (oestrone sulphatase [7]; 0.1 μM): 28%

flavone-6-sulphamate
% INHIBITION Sulphatase (oestrone sulphatase [5]; 1 μM): 26.8% | % INHIBITION Sulphatase (oestrone sulphatase [5]; 10 μM): 89.5%

C[C@]12CC[C@@H]3c4ccc(OS(=O)(=O)O)cc4CC[C@H]3[C@@H]1CCC2=O [E1-S, Oestrone-3-sulphate, reference compound]
Steroid Sulphatase Activity (Steroid sulphatase [8]; assay substrate DHA-S): 1.71 ± 0.1 nmol/30 min/200 mg protein | Steroid Sulphatase Activity (Steroid sulphatase [8]; assay substrate E1-S): 20.6 ± 0.4 nmol/30 min/200 mg protein

5-hydroxy-flavone-7-sulphamate [5-hydroxy flavone-7-sulphamate]
% INHIBITION Sulphatase (oestrone sulphatase [5]; 1 μM): 8% | % INHIBITION Sulphatase (oestrone sulphatase [5]; 10 μM): 21%
